Measurements as given in the NIST ThermoML archive (doi:10.1021/je400423u).

Assay: xn = mol fraction of the nth substance listed
Conditions: 101 kPa, Liquid; for viscosity: Falling or rolling sphere viscometry; for mass density: Vibrating tube method

CC(C)(C)O [2-methylpropan-2-ol] + CCC(C)O
Conditions | mass density [kg/m3] | viscosity [mPa·s]
308.15 K, x2 = 0 | 770.36 | 2.589
308.15 K, x2 = 0.1002 | 772.862 | 2.511
308.15 K, x2 = 0.2001 | 775.563 | 2.462
308.15 K, x2 = 0.3008 | 778.356 | 2.414
308.15 K, x2 = 0.3999 | 781.092 | 2.368
308.15 K, x2 = 0.5005 | 783.761 | 2.322
308.15 K, x2 = 0.6004 | 786.229 | 2.278
308.15 K, x2 = 0.6999 | 788.492 | 2.237
308.15 K, x2 = 0.8009 | 790.567 | 2.199
308.15 K, x2 = 0.8998 | 792.397 | 2.168
313.15 K, x2 = 0 | 765.07 | 2.089
313.15 K, x2 = 0.1002 | 767.728 | 2.032
313.15 K, x2 = 0.2001 | 770.539 | 2.001
313.15 K, x2 = 0.3008 | 773.423 | 1.97
313.15 K, x2 = 0.3999 | 776.226 | 1.941
313.15 K, x2 = 0.5005 | 778.999 | 1.912
313.15 K, x2 = 0.6004 | 781.558 | 1.886
313.15 K, x2 = 0.6999 | 783.915 | 1.863
313.15 K, x2 = 0.8009 | 786.091 | 1.843
313.15 K, x2 = 0.8998 | 787.978 | 1.828
318.15 K, x2 = 0 | 759.67 | 1.69
318.15 K, x2 = 0.1002 | 762.547 | 1.671
318.15 K, x2 = 0.2001 | 765.501 | 1.651
318.15 K, x2 = 0.3008 | 768.478 | 1.632
318.15 K, x2 = 0.3999 | 771.356 | 1.613
318.15 K, x2 = 0.5005 | 774.194 | 1.596
318.15 K, x2 = 0.6004 | 776.85 | 1.581
318.15 K, x2 = 0.6999 | 779.306 | 1.569
318.15 K, x2 = 0.8009 | 781.558 | 1.56
318.15 K, x2 = 0.8998 | 783.501 | 1.554
323.15 K, x2 = 0 | 754.19 | 1.409
323.15 K, x2 = 0.1002 | 757.329 | 1.393
323.15 K, x2 = 0.2001 | 760.468 | 1.382
323.15 K, x2 = 0.3008 | 763.574 | 1.371
323.15 K, x2 = 0.3999 | 766.546 | 1.36
323.15 K, x2 = 0.5005 | 769.452 | 1.351
323.15 K, x2 = 0.6004 | 772.176 | 1.343
323.15 K, x2 = 0.6999 | 774.689 | 1.338
323.15 K, x2 = 0.8009 | 776.998 | 1.334
323.15 K, x2 = 0.8998 | 778.948 | 1.333
328.15 K, x2 = 0 | 748.62 | –
328.15 K, x2 = 0.1002 | 752.053 | 1.178
328.15 K, x2 = 0.2001 | 755.328 | 1.171
328.15 K, x2 = 0.3008 | 758.481 | 1.164
328.15 K, x2 = 0.3999 | 761.481 | 1.158
328.15 K, x2 = 0.5005 | 764.427 | 1.154
328.15 K, x2 = 0.6004 | 767.214 | 1.151
328.15 K, x2 = 0.6999 | 769.823 | 1.15
328.15 K, x2 = 0.8009 | 772.229 | 1.15
328.15 K, x2 = 0.8998 | 774.252 | 1.153
333.15 K, x2 = 0 | 742.95 | –
333.15 K, x2 = 0.1002 | 746.671 | 1.007
333.15 K, x2 = 0.2001 | 750.068 | 1.003
333.15 K, x2 = 0.3008 | 753.262 | 0.9994
333.15 K, x2 = 0.3999 | 756.271 | 0.9962
333.15 K, x2 = 0.5005 | 759.241 | 0.9947
333.15 K, x2 = 0.6004 | 762.081 | 0.9943
333.15 K, x2 = 0.6999 | 764.795 | 0.996
333.15 K, x2 = 0.8009 | 767.312 | 0.9994
333.15 K, x2 = 0.8998 | 769.418 | 1.004
338.15 K, x2 = 0 | 737.19 | –
338.15 K, x2 = 0.1002 | 741.149 | 0.8692
338.15 K, x2 = 0.2001 | 744.63 | 0.8679
338.15 K, x2 = 0.3008 | 747.865 | 0.8665
338.15 K, x2 = 0.3999 | 750.893 | 0.8654
338.15 K, x2 = 0.5005 | 753.913 | 0.8659
338.15 K, x2 = 0.6004 | 756.832 | 0.8678
338.15 K, x2 = 0.6999 | 759.643 | 0.8713
338.15 K, x2 = 0.8009 | 762.272 | 0.876
338.15 K, x2 = 0.8998 | 764.451 | 0.8813
343.15 K, x2 = 0 | 731.31 | –
343.15 K, x2 = 0.1002 | 735.411 | 0.7586
343.15 K, x2 = 0.2001 | 738.998 | 0.7589
343.15 K, x2 = 0.3008 | 742.315 | 0.7593
343.15 K, x2 = 0.3999 | 745.431 | 0.7601
343.15 K, x2 = 0.5005 | 748.529 | 0.7616
343.15 K, x2 = 0.6004 | 751.539 | 0.7648
343.15 K, x2 = 0.6999 | 754.435 | 0.769
343.15 K, x2 = 0.8009 | 757.148 | 0.7743
343.15 K, x2 = 0.8998 | 759.383 | 0.7798
